We go through 14 compounds from the NIST ThermoML archive (doi:10.1016/j.jct.2010.01.004).

The structures appear in SMILES notation. ± gives the expanded uncertainty stated by the source.

Series [1] in a line: activity coefficient (dimensionless); of the first substance listed, at infinite dilution; xn = mol fraction of the nth substance listed. The conditions noted are these: Liquid, Chromatography, x1 = 0.
The conditions of series [2]: 308.15 K; 101.33 kPa; Liquid; Vibrating tube method.

On to `C=CCCCC` [hex-1-ene] + CC(C)C[P+](C)(CC(C)C)CC(C)C.Cc1ccc(S(=O)(=O)[O-])cc1, for which the activity coefficient was 23.5 ± 1.6 in series [1] (298.15 K), 16.5 ± 1.1 in series [1] (308.15 K), 12.4 ± 0.8 in series [1] (318.15 K) and 9.35 ± 0.64 in series [1] (328.15 K).
Consider `CCCCCC` [hexane] + CC(C)C[P+](C)(CC(C)C)CC(C)C.Cc1ccc(S(=O)(=O)[O-])cc1, for which the activity coefficient in series [1] (298.15 K) was determined as 48.8 ± 3.3; in series [1] (308.15 K), 32.2 ± 2.2; in series [1] (318.15 K) it was 23.3 ± 1.6; in series [1] (328.15 K) it was 16.4 ± 1.1.
Regarding `CO` [methanol] + CC(C)C[P+](C)(CC(C)C)CC(C)C.Cc1ccc(S(=O)(=O)[O-])cc1, the activity coefficient in series [1] (298.15 K) was found to be 0.168 ± 0.029; in series [1] (308.15 K) it was 0.164 ± 0.029; in series [1] (318.15 K), 0.166 ± 0.029; in series [1] (328.15 K), 0.167 ± 0.029; in series [1] (338.15 K), 0.171 ± 0.029; in series [1] (348.15 K), 0.175 ± 0.029. Moreover, the figures for the activity coefficient in series [1] (358.15 K) and in series [1] (368.15 K) were 0.178 ± 0.029 and 0.179 ± 0.029, respectively.
For the compound `CCCCCCCCC` [nonane] + CC(C)C[P+](C)(CC(C)C)CC(C)C.Cc1ccc(S(=O)(=O)[O-])cc1, the activity coefficient in series [1] (298.15 K) was 26.8 ± 1.8; in series [1] (308.15 K), 24.7 ± 1.7; in series [1] (318.15 K), 21.6 ± 1.5; in series [1] (328.15 K) it was 19.8 ± 1.4.
The matching figures for `C=CCCCCCC` [oct-1-ene] + CC(C)C[P+](C)(CC(C)C)CC(C)C.Cc1ccc(S(=O)(=O)[O-])cc1: 16.6 ± 1.1, 15 ± 1, 12.2 ± 0.8 and 10.8 ± 0.74.
Regarding `CCCCCCCC` [octane] + CC(C)C[P+](C)(CC(C)C)CC(C)C.Cc1ccc(S(=O)(=O)[O-])cc1, the activity coefficient amounted to 30.7 ± 2.1 in series [1] (298.15 K), 25.8 ± 1.8 in series [1] (308.15 K), 20.6 ± 1.4 in series [1] (318.15 K) and 17.2 ± 1.2 in series [1] (328.15 K).
As to `CCCCCO` [pentan-1-ol] + CC(C)C[P+](C)(CC(C)C)CC(C)C.Cc1ccc(S(=O)(=O)[O-])cc1, the activity coefficient in series [1] (338.15 K) was determined as 0.34 ± 0.032; in series [1] (348.15 K) it was 0.346 ± 0.032; in series [1] (358.15 K), 0.354 ± 0.032; in series [1] (368.15 K), 0.357 ± 0.033.
Turning to `CCCCC` [pentane] + CC(C)C[P+](C)(CC(C)C)CC(C)C.Cc1ccc(S(=O)(=O)[O-])cc1, the activity coefficient in series [1] (298.15 K) came to 61.4 ± 4.2; in series [1] (308.15 K), 41.5 ± 2.8; in series [1] (318.15 K) it was 28.5 ± 2; in series [1] (328.15 K), 18.5 ± 1.3.
As to `CCCO` [propan-1-ol] + CC(C)C[P+](C)(CC(C)C)CC(C)C.Cc1ccc(S(=O)(=O)[O-])cc1, the activity coefficient was determined as 0.278 ± 0.03 in series [1] (308.15 K); 0.282 ± 0.03 in series [1] (318.15 K); 0.28 ± 0.03 in series [1] (328.15 K); 0.284 ± 0.03 in series [1] (338.15 K); 0.287 ± 0.031 in series [1] (348.15 K); 0.299 ± 0.031 in series [1] (358.15 K). Also, in series [1] (368.15 K), the activity coefficient stood at 0.287 ± 0.031.
Take `C1CCOC1` [tetrahydrofuran] + CC(C)C[P+](C)(CC(C)C)CC(C)C.Cc1ccc(S(=O)(=O)[O-])cc1: the activity coefficient worked out at 1.41 ± 0.09 in series [1] (298.15 K); 1.31 ± 0.09 in series [1] (308.15 K); 1.22 ± 0.08 in series [1] (318.15 K); 1.12 ± 0.07 in series [1] (328.15 K); 1.09 ± 0.07 in series [1] (338.15 K); 1.05 ± 0.07 in series [1] (348.15 K). For the same compound, the activity coefficient in series [1] (358.15 K) was 1.05 ± 0.07.
Regarding `c1ccsc1` [thiophene] + CC(C)C[P+](C)(CC(C)C)CC(C)C.Cc1ccc(S(=O)(=O)[O-])cc1, the activity coefficient in series [1] (298.15 K) came out at 0.901 ± 0.057; in series [1] (308.15 K) it was 0.848 ± 0.054; in series [1] (318.15 K), 0.843 ± 0.054; in series [1] (328.15 K) it was 0.818 ± 0.053; in series [1] (338.15 K) it was 0.812 ± 0.053; in series [1] (348.15 K) it was 0.805 ± 0.052. The activity coefficient in series [1] (358.15 K) was 0.804 ± 0.052.
As to `Cc1ccccc1` [toluene] + CC(C)C[P+](C)(CC(C)C)CC(C)C.Cc1ccc(S(=O)(=O)[O-])cc1, the activity coefficient was determined as 1.94 ± 0.13 in series [1] (298.15 K); 1.81 ± 0.12 in series [1] (308.15 K); 1.78 ± 0.12 in series [1] (318.15 K); 1.69 ± 0.11 in series [1] (328.15 K); 1.66 ± 0.11 in series [1] (338.15 K); 1.65 ± 0.11 in series [1] (348.15 K). For the same compound, the activity coefficient in series [1] (358.15 K) amounted to 1.64 ± 0.11; in series [1] (368.15 K), 1.61 ± 0.11.
`CC(C)C[P+](C)(CC(C)C)CC(C)C.Cc1ccc(S(=O)(=O)[O-])cc1` [triisobutylmethylphosphonium p-toluenesulfonate]: the mass density in series [2] amounted to 1061 ± 3 kg/m3.
In the case of `O` [water] + CC(C)C[P+](C)(CC(C)C)CC(C)C.Cc1ccc(S(=O)(=O)[O-])cc1, the activity coefficient in series [1] (318.15 K) turned out to be 0.585 ± 0.041; in series [1] (328.15 K), 0.552 ± 0.04; in series [1] (338.15 K), 0.534 ± 0.039; in series [1] (348.15 K), 0.524 ± 0.039; in series [1] (358.15 K), 0.492 ± 0.037; in series [1] (368.15 K), 0.477 ± 0.037.
